Assay results taken from patent US20230167088A1, “1-PYRAZINYLPYRAZOLYL-3-OXYALKYL ACIDS AND THEIR DERIVATIVES, AND THEIR USE FOR CONTROL OF UNDESIRED PLANT GROWTH” (BAYER AKTIENGESELLSCHAFT, priority 2020, published 2023).

How the values were obtained:
[1] = tested on: POAAN; assay: Herbicidal post-emergence action 1b (twin sowing, 1280 g/ha); format: in vivo, Poa annua; settings: dosage 1280 g/ha, visual rating about 3 weeks after treatment
Description: (§1) [table] b) Seeds of mono- and dicotyledonous weed plants are placed in plastic pots in sandy loam soil (twin sowing with one species each of mono- or dicotyledonous weed plants per pot), covered with soil and cultivated in a greenhouse under controlled growth conditions. 2 to 3 weeks after sowing, the test plants are treated at the one-leaf stage. The compounds of the invention, formulated in the form of wettable powders (WP) or as emulsion concentrates (EC), are applied to the green parts of the plants as aqueous suspension or emulsion with addition of 0.5% additive at a water application rate equivalent to 600 litres per hectare. After the test plants have been kept in the greenhouse under optimum growth conditions for about 3 weeks, the activity of the preparations is rated visually in comparison to untreated controls. For example, 100% activity=the plants have died, 0% activity=like control plants. Tables A16 to A21 below show the effects of selected compounds of the general formula (I) according to Tables 1 and 2 on various harmful plants and at an application rate corresponding to 1280 g/ha, which were obtained by the experimental procedure mentioned above.

[2] = tested on: ECHCG; assay: as above; format: in vivo, Echinochloa crus-galli; settings: dosage 1280 g/ha, visual rating about 3 weeks after treatment
Description: as §1

[3] = tested on: MATIN; assay: as above; format: in vivo, Matricaria inodora; settings: dosage 1280 g/ha, visual rating about 3 weeks after treatment
Description: as §1

[4] = tested on: POAAN; assay: Herbicidal pre-emergence action 2b (doubly sown, 1280 g/ha); format: in vivo, Poa annua; settings: doubly sown pots, dosage 1280 g/ha, visual scoring after about 3 weeks
From the text: (§2) [table] b) Seeds of mono- and dicotyledonous weed plants are placed in plastic pots in sandy loam soil (doubly sown with one species each of mono- or dicotyledonous weed plants per pot) and covered with soil. The compounds of the invention, formulated in the form of wettable powders (WP) or as emulsion concentrates (EC), are then applied onto the surface of the covering soil as aqueous suspension or emulsion with addition of 0.5% additive at a water application rate equivalent to 600 litres per hectare. After the treatment, the pots are placed in a greenhouse and kept under good growth conditions for the trial plants. After about 3 weeks, the effect of the preparations is scored visually in comparison with untreated controls as percentages. For example, 100% activity=the plants have died, 0% activity=like control plants. Tables B16 to B21 below show the effects of selected compounds of the general formula (I) according to Tables 1 and 2 on various harmful plants and at an application rate corresponding to 1280 g/ha, which were obtained by the experimental procedure mentioned above.

[5] = tested on: DIGSA; assay: as above; format: in vivo, Digitaria sanguinalis; settings: doubly sown pots, dosage 1280 g/ha, visual scoring after about 3 weeks
From the text: as §2

[6] = tested on: ECHCG; assay: as above; format: in vivo, Echinochloa crus-galli; settings: doubly sown pots, dosage 1280 g/ha, visual scoring after about 3 weeks
From the text: as §2

[7] = tested on: AMARE; assay: as above; format: in vivo, Amaranthus retroflexus; settings: doubly sown pots, dosage 1280 g/ha, visual scoring after about 3 weeks
From the text: as §2

[8] = tested on: STEME; assay: as above; format: in vivo, Stellaria media; settings: doubly sown pots, dosage 1280 g/ha, visual scoring after about 3 weeks
From the text: as §2

[9] = tested on: MATIN; assay: as above; format: in vivo, Matricaria inodora; settings: doubly sown pots, dosage 1280 g/ha, visual scoring after about 3 weeks
From the text: as §2

[10] = tested on: ALOMY; assay: Herbicidal post-emergence action 1a (greenhouse pots, visual rating); format: in vivo, Alopecurus myosuroides; settings: rated visually about 3 weeks after treatment, 100% = plants have died, 0% = like control plants
Description: (§3) [table] a) Seeds of monocotyledonous and dicotyledonous weeds and crop plants are placed in sandy loam in plastic or organic plant pots, covered with soil and cultivated in a greenhouse under controlled growth conditions. 2 to 3 weeks after sowing, the test plants are treated at the one-leaf stage. The compounds of the invention, formulated in the form of wettable powders (WP) or as emulsion concentrates (EC), are then sprayed onto the green parts of the plants as aqueous suspension or emulsion with addition of 0.5% additive at a water application rate of 600 1/ha (converted). After the test plants have been kept in the greenhouse under optimum growth conditions for about 3 weeks, the activity of the preparations is rated visually in comparison to untreated controls. For example, 100% activity=the plants have died, 0% activity=like control plants. Tables A1 to A15 below show the effects of selected compounds of the general formula (I) according to Tables 1 and 2 on various harmful plants and an application rate corresponding to 320 g/ha and/or 80 g/ha, which were obtained by the experimental procedure mentioned above.

[11] = tested on: AVEFA; assay: as above; format: in vivo, Avena fatua; settings: Dosage 320 g/ha; rated visually about 3 weeks after treatment; 100% = plants have died, 0% = like control plants
Description: as §3

[12] = tested on: ECHCG; assay: as above; format: in vivo, Echinochloa crus-galli; settings: Dosage 320 g/ha; rated visually about 3 weeks after treatment; 100% = plants have died, 0% = like control plants
Description: as §3

[13] = tested on: LOLRI; assay: as above; format: in vivo, Lolium rigidum; settings: Dosage 320 g/ha; rated visually about 3 weeks after treatment; 100% = plants have died, 0% = like control plants
Description: as §3

[14] = tested on: SETVI; assay: as above; format: in vivo, Setaria viridis; settings: rated visually about 3 weeks after treatment, 100% = plants have died, 0% = like control plants
Description: as §3

[15] = tested on: ABUTH; assay: as above; format: in vivo, Abutilon theophrasti; settings: visual rating about 3 weeks after treatment
Description: as §3

[16] = tested on: AMARE; assay: as above; format: in vivo, Amaranthus retroflexus; settings: dosage 320 g/ha, visual rating about 3 weeks after treatment
Description: as §3

[17] = tested on: POLCO; assay: as above; format: in vivo, Polygonum convolvulus; settings: visual rating about 3 weeks after treatment
Description: as §3

[18] = tested on: VERPE; assay: as above; format: in vivo, Veronica persica; settings: visual rating about 3 weeks after treatment
Description: as §3

[19] = tested on: ALOMY; assay: Herbicidal pre-emergence action 2a (greenhouse pots, visual scoring); format: in vivo, Alopecurus myosuroides; settings: dosage 320 g/ha, visual scoring after about 3 weeks
From the text: (§4) [table] a) Seeds of monocotyledonous and dicotyledonous weed plants and crop plants are placed in plastic or organic plant pots and covered with soil. The compounds of the invention, formulated in the form of wettable powders (WP) or as emulsion concentrates (EC), are then applied onto the surface of the covering soil as aqueous suspension or emulsion with addition of 0.5% additive at a water application rate of 600 1/ha (converted). After the treatment, the pots are placed in a greenhouse and kept under good growth conditions for the trial plants. After about 3 weeks, the effect of the preparations is scored visually in comparison with untreated controls as percentages. For example, 100% activity=the plants have died, 0% activity=like control plants. Tables B1 to B15 below show the effects of selected compounds of the general formula (I) according to Tables 1 and 2 on various harmful plants and an application rate corresponding to 320 g/ha and/or 80 g/ha, which were obtained by the experimental procedure mentioned above.

[20] = tested on: AVEFA; assay: as above; format: in vivo, Avena fatua; settings: dosage 320 g/ha, visual scoring after about 3 weeks
From the text: as §4

[21] = tested on: ECHCG; assay: as above; format: in vivo, Echinochloa crus-galli; settings: dosage 320 g/ha, visual scoring after about 3 weeks
From the text: as §4

[22] = tested on: LOLRI; assay: as above; format: in vivo, Lolium rigidum; settings: dosage 320 g/ha, visual scoring after about 3 weeks vs untreated controls
From the text: as §4

[23] = tested on: SETVI; assay: as above; format: in vivo, Setaria viridis; settings: dosage 320 g/ha, visual scoring after about 3 weeks vs untreated controls
From the text: as §4

[24] = tested on: AMARE; assay: as above; format: in vivo, Amaranthus retroflexus; settings: dosage 320 g/ha, visual scoring after about 3 weeks vs untreated controls
From the text: as §4

[25] = tested on: MATIN; assay: as above; format: in vivo, Matricaria inodora; settings: dosage 320 g/ha, visual scoring after about 3 weeks vs untreated controls
From the text: as §4

[26] = tested on: POLCO; assay: as above; format: in vivo, Polygonum convolvulus; settings: dosage 320 g/ha, visual scoring after about 3 weeks vs untreated controls
From the text: as §4

[27] = tested on: VERPE; assay: as above; format: in vivo, Veronica persica; settings: dosage 320 g/ha, visual scoring after about 3 weeks vs untreated controls
From the text: as §4

## COC(=O)[C@H](C)Oc1nn(-c2cnccn2)c(-c2ccc(F)nc2)c1C#N [Example I-26]
[1]
  Post-emergence action at 1280 g/ha against POAAN in %: 100%
[2]
  Post-emergence action at 1280 g/ha against ECHCG in %: 100%
[3]
  Post-emergence action at 1280 g/ha against MATIN in %: 100%
[4]
  Pre-emergence action at 1280 g/ha against POAAN in %: 100%
[5]
  Pre-emergence action at 1280 g/ha against DIGSA in %: 100%
[6]
  Pre-emergence action at 1280 g/ha against ECHCG in %: 100%
[7]
  Pre-emergence action at 1280 g/ha against AMARE in %: 90%
[8]
  Pre-emergence action at 1280 g/ha against STEME in %: 100%

## COC(=O)COc1nn(-c2cnccn2)c(-c2ccnc(F)c2)c1Cl [Example I-06]
[2]
  Post-emergence action at 1280 g/ha against ECHCG in %: 100%
[3]
  Post-emergence action at 1280 g/ha against MATIN in %: 90%
[4]
  Pre-emergence action at 1280 g/ha against POAAN in %: 100%
[6]
  Pre-emergence action at 1280 g/ha against ECHCG in %: 100%
[7]
  Pre-emergence action at 1280 g/ha against AMARE in %: 90%
[9]
  Pre-emergence action at 1280 g/ha against MATIN in %: 90%
[8]
  Pre-emergence action at 1280 g/ha against STEME in %: 100%

## CCOC(=O)COc1nn(-c2cnccn2)c(-c2cncc(F)c2)c1Br [Example I-90]
[10]; Dosage 80 g/ha
  Post-emergence action against ALOMY in %: 80%
[10]; Dosage 320 g/ha
  Post-emergence action against ALOMY in %: 100%
[11]
  Post-emergence action against AVEFA in %: 100%
[12]
  Post-emergence action against ECHCG in %: 90%
[13]
  Post-emergence action against LOLRI in %: 80%
[14]; Dosage 80 g/ha
  Post-emergence action against SETVI in %: 80%
[14]; Dosage 320 g/ha
  Post-emergence action against SETVI in %: 90%
[15]; dosage 80 g/ha
  Post-emergence action against ABUTH in %: 90%
[15]; dosage 320 g/ha
  Post-emergence action against ABUTH in %: 90%
[16]
  Post-emergence action against AMARE in %: 90%
[17]; dosage 80 g/ha
  Post-emergence action against POLCO in %: 80%
[17]; dosage 320 g/ha
  Post-emergence action against POLCO in %: 80%
[18]; dosage 80 g/ha
  Post-emergence action against VERPE in %: 90%
[18]; dosage 320 g/ha
  Post-emergence action against VERPE in %: 90%
[19]
  Pre-emergence action against ALOMY in %: 90%
[20]
  Pre-emergence action against AVEFA in %: 100%
[21]
  Pre-emergence action against ECHCG in %: 100%
[22]
  Pre-emergence action against LOLRI in %: 100%
[23]
  Pre-emergence action against SETVI in %: 100%
[24]
  Pre-emergence action against AMARE in %: 100%
[25]
  Pre-emergence action against MATIN in %: 100%
[26]
  Pre-emergence action against POLCO in %: 100%
[27]
  Pre-emergence action against VERPE in %: 100%
